From patent EP1501797B1, “3-(SUBSTITUTED AMINO)-1H-INDOLE-2-CARBOXYLIC ACID ESTER AND 3-(SUBSTITUTED AMINO)-BENZO[B]THIOPHENE-2-CARBOXYLIC ACID ESTER DERIVATIVES AS INTERLEUKIN-4 GENE EXPRESSION INHIBITORS” (Aventis Pharmaceuticals Inc., priority 2002, dated 2003)

Legend:
[1] = tested on: IL-5; assay: Human primary Th2 cells, anti-CD3/anti-CD28 activated, IL-5 ELISA; type: cell-based
Method: (§1) Briefly, CD4^+CD45RA^+ T cells, isolated from donor peripheral blood mononuclear cells of healthy donors, are educated in the presence of anti-CD3/CD28 antibodies and various growth factors to obtain either a Thl-like or Th2-like phenotypes as determined by the known cytokine profiles of these two cell types.
Peripheral blood mononuclear cells (PBMC) are prepared from human blood by Ficoll-Hypacque (Pharmacia). The cells are washed two times in Hanks balanced salt solution (HBSS) and counted.
Naive T cells (CD4^+/CD45RA ) are prepared by negative selection method using following antibodies and Dynabeads: anti-CD8, anti-HLA-DR, (where HLA means human leucocyte antigen) anti-CD14, anti-CD16, anti-CD19, anti-CD45RO antibodies (all from R&D Systems, 1-2 µg/ml) are added to the cells, and the cells are kept on ice for 30 min. The cells are washed two times in HBSS, and goat anti- mouse Ig-beads, (bead:target ratio, 5:1) are added. The cells and beads are slowly rotated at 4°C for 20 min. (following the protocol supplied from Dynal). The supernatant is removed and fresh goat anti-mouse Ig-beads are added to the supernatant, which is slowly rotated at 4°C for 20 min. The cells are counted and phenotypically characterized by flow cytometric analysis.
CD4^+/CD45RA^+ cells at a density of 10^6/ml in RPMI, is prepared and added to RPMI medium containing 10% Hyclone serum/ glutamine and 1-2 µg/ml anti-CD28 Ab. The cells are split in two aliquots. For Th1 cells: anti-IL-4 Ab (1-2 µg/ml), IFN-γ (1 µg/ml, or 5000 units/ml) are added to the wells. For Th2 cells: IL-4 (100-200 ng/ml), anti-IFN-γ neutralizing Ab (1-2 µg/ml), anti-IL-12 neutralizing Ab (1-2 µg/ml) are added into the wells. […] The cells are transferred to fresh wells and grown in 200 units/ml IL-2 for 2 weeks by feeding them every other day with IL-2 containing medium and splitting the cultures 1:2 or 1:3 as needed. The degree of polarization is determined by intracellular staining of cells with anti-IFN-γ and anti-IL-4 antibodies from Pharmingen, and using flow cytometry from Becton Dickinson (BD), according to manufacturers description. The cells are stimulated with PHA and alloantigens at day 14 and 28 as described below. Eight days after the second allostimulation the cells can be used for compound screening or frozen for future use. For compound testing, large quantities of Th1 and Th2 cells derived from a given donor (NYTh1 and NYTh2) were expanded and frozen as aliquots in liquid nitrogen. The cells are thawed and cultured as and when needed. The thawed cells are stimulated with alloantigen/PHA combination. The cells are used for compound screening after 8-10 days in culture.
Re-stimulation by allogeneic cells: Human PBMCs, to be used as alloantigens, are isolated from freshly drawn blood by Ficoll separation. […] Cells are counted and diluted to a final concentration of 2 x 10^6/ml in medium containing 10 µg/ml PHA and 200 units/ml IL-2.
Ninetysix well Falcon tissue culture plates (Fisher Scientific) are coated with 100 microliters per well of 10 µg/ml anti-CD3 (PharMingen) antibody in phosphate buffered saline (PBS) and stored at 4°C one day before the experiment.
On the day of assay, anti-CD3 antibody coated plates are washed with PBS once to remove all soluble anti-CD3 antibody. […] All compounds and controls are assayed in triplicates.

[2] = tested on: Human primary Th1 cells; assay: Human primary Th1 (NYTh1) cells, proliferation (MTS assay); type: cell-based; conditions: data from 8 different experiments combined
Method: as §1
Generation of Th1/Th2 cells: Twenty four well plates are coated with 300 µL anti-CD3 Ab (10 µg/ml, in PBS 1-2 h at 37°C or overnight at 4°C), and washed two times with PBS. CD4^+/CD45RA^+ cells at a density of 10^6/ml in RPMI, is prepared and added to RPMI medium containing 10% Hyclone serum/ glutamine and 1-2 µg/ml anti-CD28 Ab. The cells are split in two aliquots. […] The degree of polarization is determined by intracellular staining of cells with anti-IFN-γ and anti-IL-4 antibodies from Pharmingen, and using flow cytometry from Becton Dickinson (BD), according to manufacturers description. […] For compound testing, large quantities of Th1 and Th2 cells derived from a given donor (NYTh1 and NYTh2) were expanded and frozen as aliquots in liquid nitrogen. […]
Re-stimulation by allogeneic cells: Human PBMCs, to be used as alloantigens, are isolated from freshly drawn blood by Ficoll separation. […] Cells are counted and diluted to a final concentration of 2 x 10^6/ml in medium containing 10 µg/ml PHA and 200 units/ml IL-2. […]

`O=C(O)c1[nH]c2ccccc2c1Nc1ccncc1` [Example 28, 3-(4-Pyridinylamino)-1H-indole-2-carboxylic acid] gave an activity at 0.01 µM ([1]; Homo sapiens, 0.01 µM, 48 hr, read-out: IL-5 (% control) mean) of 102%, an activity at 0.03 µM ([1]; Homo sapiens, 0.03 µM, 48 hr, read-out: IL-5 (% control) mean) of 85.2% and an activity at 0.1 µM ([1]; Homo sapiens, 0.1 µM, 48 hr, read-out: IL-5 (% control) mean) of 78.6%. The activity at 0.3 µM ([1]; Homo sapiens, 0.3 µM, 48 hr, read-out: IL-5 (% control) mean) was 70.8%, the activity at 1 µM ([1]; Homo sapiens, 1 µM, 48 hr, read-out: IL-5 (% control) mean) was 70.7% and the activity at 3 µM ([1]; Homo sapiens, 3 µM, 48 hr, read-out: IL-5 (% control) mean) was 70.4%. The activity at 10 µM ([1]; Homo sapiens, 10 µM, 48 hr, read-out: IL-5 (% control) mean) was 53.9%, the IC50 ([1]; Human primary Th2 cells, combined data from 10 different experiments) was roughly 10 µM and the IC50 [2] was greater than 10 µM.
